Reference: US20230416261A1, “ETHANEDIAMINE-HETEROCYCLE DERIVATIVES AS INHIBITORS OF PROTEIN ARGININE METHYLTRANSFERASES” (Board of Regents, The University of Texas System, priority 2021, published 2023)

Experiments:
[1] = molecular target: T1, PRMT1 (Homo sapiens, UniProt Q99873); test: PRMT1 RKO Cellular Target Engagement Assay (In-Cell Western, asymmetric di-methyl arginine); format: cell-based; settings: RKO cells, 48 hr compound incubation; read-out: RKO IC50 (PRMT-1 Target Engagement)
Procedure, shortened: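 RKO cells (1,000/well) received 1:3 serially diluted compound for 48 h at 37 °C, then were fixed, permeabilised and immunostained for asymmetric di-methyl arginine by In-Cell Western. The 800 nm antibody signal was normalised to CellTag 700 nm; IC50 from four-parameter logistic fit.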

[2] = tested on: PATC53 cells; test: PATC53 Long Term Phenotypic Assay (14 days, crystal violet viability); format: cell-based; settings: 336 h
Procedure, shortened: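 Cells seeded at 250 per well, allowed 24 h to settle, then treated with 1:3 serial dilutions of compound for 14 days at 37 °C, 5% CO2. Viability measured by crystal violet staining, solubilised in 10% HOAc, absorbance 590 nm; IC50 from four-parameter logistic fit.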

[3] = tested on: DOHH2 cells; test: DOHH2 Long Term Phenotypic Assay (7 days, Cell Titer-Glo viability); format: cell-based; settings: Homo sapiens, DOHH-2, 168 h, Cell Titer-Glo 2.0
Procedure, shortened: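 DOHH2 lymphoma cells (250 per well) in RPMI-1640 with 10% FBS were exposed to 1:3 serially diluted compounds for 7 days at 37 °C, 5% CO2. Viability was read by CellTiter-Glo 2.0 luminescence, and IC50 values came from four-parameter logistic fits.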

[4] = molecular target: T1, PRMT1; test: PRMT1 Enzymatic Assay (LANCE TR-FRET, methylation of histone H4 at Arg3); format: biochemical; set-up: purchased SignalChem P365-380G; settings: PRMT1 1.5 nM, SAM 1 μM, biotinylated histone H4 (1-21) 25 nM; read-out: PRMT-1 IC50
Procedure, shortened: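 PRMT1 (1.5 nM) preincubated 15 min with compound at room temperature, then reacted 1 h with 1 μM SAM and 25 nM biotinylated histone H4 (1-21) in 50 mM Hepes pH 8, 1 mM TCEP, 0.003% Tween-20. H4R3me detected by TR-FRET (665/620 nm ratio); IC50 from four-parameter logistic fit.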

T1 sequence (Q99873 whole entry): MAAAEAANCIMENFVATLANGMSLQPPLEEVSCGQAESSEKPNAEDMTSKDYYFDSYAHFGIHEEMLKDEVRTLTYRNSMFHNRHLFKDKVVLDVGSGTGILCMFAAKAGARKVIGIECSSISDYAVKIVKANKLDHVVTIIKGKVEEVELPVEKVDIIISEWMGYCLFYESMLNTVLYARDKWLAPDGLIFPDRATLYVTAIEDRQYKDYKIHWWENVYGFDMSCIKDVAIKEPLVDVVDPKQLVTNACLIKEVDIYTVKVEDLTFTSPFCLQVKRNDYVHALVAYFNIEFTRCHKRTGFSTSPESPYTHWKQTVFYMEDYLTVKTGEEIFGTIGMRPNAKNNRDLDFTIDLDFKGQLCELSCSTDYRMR

Row | IC50 [1] [nM] | IC50 [4] [nM] | Structure (SMILES) | IC50 [2] [nM] | IC50 [3] [nM]
1 | 128 | 121 | CNCCN(C)Cc1nn2c(c1C1CCC(COC)(COC)CC1)CN(C(=O)C(C)C(F)(F)F)CC2 (stereo not drawn) [Example 68, 1-(3-(4,4-bis(methoxy-methyl)cyclohexyl)-2-((methyl(2-(methylamino)-ethyl)amino)methyl)-6,7-dihydropyrazolo[1,5-a]-pyrazin-5(4H)-yl)-3,3,3-trifluoro-2-methylpropan-1-one] | 41 | 71
2 | 142 | 57 | CNCCN(C)Cc1nn2c(c1C1CCC(COC)(COC)CC1)CN(C(=O)C1CC(C(F)(F)F)C1)CC2 (stereo not drawn) [Example 74, (3-(4,4-bis(methoxymethyl)-cyclohexyl)-2-((methyl(2-(methylamino)ethyl)amino)-methyl)-6,7-dihydropyrazolo-[1,5-a]pyrazin-5(4H)-yl)(3-(trifluoromethyl)cyclobutyl)-methanone] | 54 | 93
3 | 116 | 91 | CNCCN(C)Cc1nn2c(c1C1CCC(COC)(COC)CC1)CN(C(=O)C1(C)CCCC1)CC2 [Example 80, (3-(4,4-bis(methoxymethyl)-cyclohexyl)-2-((methyl(2-(methylamino)ethyl)amino)-methyl)-6,7-dihydropyrazolo-[1,5-a]pyrazin-5(4H)-yl)(1-methylcyclopentyl)-methanone] | 70 | 104
